Laboratory results: patent US20230031406A1, “COMPOUNDS AND COMPOSITIONS FOR TREATING CONDITIONS ASSOCIATED WITH NLRP ACTIVITY” (Novartis AG, priority 2018, published 2023)

tested on: PMA-differentiated THP-1 cells; experiment: IL-1β production in PMA-differentiated THP-1 cells stimulated with gramicidin (hTHP-1 assay containing 2% fetal bovine serum; Procedures 1 and 2); format: cell-based, human; settings: Homo sapiens, THP-1, Table B1; 2% fetal bovine serum; class symbols; read-out: Average IC50 of compounds in hTHP-1 assay: hTHP-1 IC50
Outline: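 PMA 20 ng/ml 16-18 h → trypsinise → 50,000 cells/well, RPMI/2% FBS; cpd 1 h (11-pt, 100–0.0017 μM; DMSO 0.37%); gramicidin 5 μM, 2 h; spin; supernatant IL-1β via HTRF.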

Row | Compound | IC50
1 | Cc1cc(C2CC2)nc(NC(=O)N=S(N)(=O)c2ncc(C(C)(C)O)s2)n1 (single isomer, unassigned) [Compound 185a, (R) or (S)-N′-((4-cyclopropyl-6-methylpyrimidin-2-yl)carbamoyl)-5-(2-hydroxypropan-2-yl)thiazole-2-sulfonimidamide] | 5 to 30 µM
2 | CC1(C)CCc2c1nc1c(c2NC(=O)N=S(N)(=O)c2cnc(C(C)(O)CO)s2)CCC1 (single isomer, unassigned) [Compound 201a, (R, R) or (S, R) or (R, S) or (S, S)-2-(1,2-Dihydroxypropan-2-yl)-N′-((3,3-dimethyl-1,2,3,5,6,7-hexahydrodicyclopenta [b,e]pyridin-8-yl)carbamoyl) thiazole-5-sulfonimidamide] | 0.04 to 0.2 µM

same assay, conditions: Homo sapiens, THP-1, Table B1; 2% fetal bovine serum; numeric bounds; read-out: Average IC50 of compounds in hTHP-1 assay: hTHP-1 IC50

Row | Compound | IC50
3 | CC(C)(O)c1ncc(S(N)(=O)=NC(=O)Nc2c3c(nc4c2CCC4F)CCC3)s1 (single isomer, unassigned) [Compound 183b, (S,S) or (S,R)-N′-((3-fluoro-1,2,3,5,6,7-hexahydrodicyclo-penta[b,e]pyridin-8-yl)carbamoyl)-2-(2-hydroxypropan-2-yl)thiazole-5-sulfonimidamide] | > 30 µM
4 | Cc1cc(C2CC2)nc(NC(=O)N=S(N)(=O)c2ncc(C(C)(C)O)s2)n1 (single isomer, unassigned) [Compound 185b, (S) or (R)-N′-((4-cyclopropyl-6-methylpyrimidin-2-yl)carbamoyl)-5-(2-hydroxypropan-2-yl)thiazole-2-sulfonimidamide] | > 30 µM

same assay, conditions: Homo sapiens, THP-1, Table B2; 2% fetal bovine serum; class symbols; read-out: hTHP-1 IC50

Row | Compound | IC50
5 | CC(C)c1cc(NC(=O)N=S(N)(=O)c2cc(C(C)(C)O)cs2)c2c(n1)CCC2 (single isomer, unassigned) [Compound 182b, (R) or (S)-4-(2-Hydroxypropan-2-yl)-N′-((2-isopropyl-6,7-dihydro-5H-cyclopenta[b]pyridin-4-yl)carbamoyl) thiophene-2-sulfonimidamide] | 5 to 30 µM
6 | Cc1cc(C2CC2)nc(NC(=O)N=S(N)(=O)c2ncc(C(C)(C)O)s2)n1 (single isomer, unassigned) [Compound 185a, (R) or (S)-N′-((4-cyclopropyl-6-methylpyrimidin-2-yl)carbamoyl)-5-(2-hydroxypropan-2-yl)thiazole-2-sulfonimidamide] | 5 to 30 µM
7 | CC1(C)CCc2c1nc1c(c2NC(=O)N=S(N)(=O)c2cnn3c2OCCC3)CCC1 (single isomer, unassigned) [Compound 304b, (R) or (S)-N′-((3,3-dimethyl-1,2,3,5,6,7-hexahydrodicyclopenta [b,e]pyridin-8-yl)carbamoyl)-6,7-dihydro-5H-pyrazolo[5,1-b][1,3]oxazine-3-sulfonimidamide] | 1 to 5 µM
8 | Cc1c(C2CC2)nc2c(c1NC(=O)N=S(N)(=O)c1cnn3c1OCCC3)CCC2 (single isomer, unassigned) [Compound 306b, (R) or (S)-N′-((2-cyclopropyl-3-methyl-6,7-dihydro-5H-cyclopenta[b]pyridin-4-yl)carbamoyl)-6,7-dihydro-5H-pyrazolo[5,1-b][1,3] oxazine-3-sulfonimidamide] | 5 to 30 µM

same assay, conditions: Homo sapiens, THP-1, Table B2; 2% fetal bovine serum; numeric bounds; read-out: hTHP-1 IC50

Row | Compound | IC50
9 | CC(C)c1cc(NC(=O)N=S(N)(=O)c2cc(C(C)(C)O)cs2)c2c(n1)CCC2 (single isomer, unassigned) [Compound 182a, (S) or (R)-4-(2-Hydroxypropan-2-yl)-N′-((2-isopropyl-6,7-dihydro-5H-cyclopenta[b]pyridin-4-yl)carbamoyl) thiophene-2-sulfonimidamide] | > 30 µM
10 | Cc1cc(C2CC2)nc(NC(=O)N=S(N)(=O)c2ncc(C(C)(C)O)s2)n1 (single isomer, unassigned) [Compound 185b, (S) or (R)-N′-((4-cyclopropyl-6-methylpyrimidin-2-yl)carbamoyl)-5-(2-hydroxypropan-2-yl)thiazole-2-sulfonimidamide] | > 30 µM
11 | CC1(C)CCc2c1nc1c(c2NC(=O)N=S(N)(=O)c2cnn3c2OCCC3)CCC1 (single isomer, unassigned) [Compound 304a, (S) or (R)-N′-((3,3-dimethyl-1,2,3,5,6,7-hexahydrodicyclopenta [b,e]pyridin-8-yl)carbamoyl)-6,7-dihydro-5H-pyrazolo[5,1-b][1,3] oxazine-3-sulfonimidamide] | > 30 µM

same assay, conditions: Table B1; 2% fetal bovine serum; class symbols; read-out: Average IC50 of compounds in hTHP-1 assay: hTHP-1 IC50

Row | Compound | IC50
12 | CC(C)(O)c1ncc(S(N)(=O)=NC(=O)Nc2c3c(nc4c2CCC4F)CCC3)s1 (single isomer, unassigned) [Compound 183a, (R,R) or (R,S)-N′-((3-fluoro-1,2,3,5,6,7-hexahydrodicyclo-penta[b,e]pyridin-8-yl)carbamoyl)-2-(2-hydroxypropan-2-yl)thiazole-5-sulfonimidamide] | 1 to 5 µM
13 | CC(C)(O)c1ncc(S(N)(=O)=NC(=O)Nc2c3c(nc4c2CCC4F)CCC3)s1 (single isomer, unassigned) [Compound 183c, (R,S) or (R,R)-N′-((3-fluoro-1,2,3,5,6,7-hexahydrodicyclo-penta[b,e]pyridin-8-yl)carbamoyl)-2-(2-hydroxypropan-2-yl)thiazole-5-sulfonimidamide] | 5 to 30 µM
14 | CC1CCc2c1nc1c(c2NC(=O)N=S(N)(=O)c2ccn(C(F)F)n2)CCC1 (single isomer, unassigned) [Compound 184a, (R,R) or (R,S)-1-(difluoro-methyl)-N′-((3-methyl-1,2,3,5,6,7-hexahydro-dicyclopenta[b,e]pyridin-8-yl)carbamoyl)-1H-pyrazole-3-sulfonimidamide] | 0.04 to 0.2 µM
15 | CC1CCc2c1nc1c(c2NC(=O)N=S(N)(=O)c2ccn(C(F)F)n2)CCC1 (single isomer, unassigned) [Compound 184b, (S,S) or (S,R)-1-(difluoro-methyl)-N′-((3-methyl-1,2,3,5,67-hexahydro-dicyclopenta[b,e]pyridin-8-yl)carbamoyl)-1H-pyrazole-3-sulfonimidamide] | 5 to 30 µM
16 | CC1CCc2c1nc1c(c2NC(=O)N=S(N)(=O)c2ccn(C(F)F)n2)CCC1 (single isomer, unassigned) [Compound 184c, (R,S) or (R,R)-1-(difluoro-methyl)-N′-((3-methyl-1,2,3,5,6,7-hexahydro-dicyclopenta[b,e]pyridin-8-yl)carbamoyl)-1H-pyrazole-3-sulfonimidamide] | 5 to 30 µM
17 | CC1CCc2c1nc1c(c2NC(=O)N=S(N)(=O)c2ccn(C(F)F)n2)CCC1 (single isomer, unassigned) [Compound 184d, (S,R) or (S,S)-1-(difluoro-methyl)-N′-((3-methyl-1,2,3,5,6,7-hexahydro-dicyclopenta[b,e]pyridin-8-yl)carbamoyl)-1H-pyrazole-3-sulfonimidamide] | 1 to 5 µM

same assay, conditions: Table B1; 2% fetal bovine serum; numeric bounds; read-out: Average IC50 of compounds in hTHP-1 assay: hTHP-1 IC50

Row | Compound | IC50
18 | CC(C)(O)c1ncc(S(N)(=O)=NC(=O)Nc2c3c(nc4c2CCC4F)CCC3)s1 (single isomer, unassigned) [Compound 183d, (S,R) or (S,S)-N′-((3-fluoro-1,2,3,5,6,7-hexahydrodicyclo-penta[b,e]pyridin-8-yl)carbamoyl)-2-(2-hydroxypropan-2-yl)thiazole-5-sulfonimidamide] | > 30 µM

same assay, conditions: Table B2; 2% fetal bovine serum; class symbols; read-out: hTHP-1 IC50

Row | Compound | IC50
19 | CC1(C)CCc2c1nc1c(c2NC(=O)N=S(N)(=O)c2cnc(C(C)(O)CO)s2)CCC1 (single isomer, unassigned) [Compound 201a, (R, R) or (S, R) or (R, S) or (S, S)-2-(1,2-Dihydroxypropan-2-yl)-N′-((3,3-dimethyl-1,2,3,5,6,7-hexahydrodicyclopenta [b,e]pyridin-8-yl)carbamoyl) thiazole-5-sulfonimidamide] | 0.008 to 0.04 µM
20 | CC1(C)CCc2c1nc1c(c2NC(=O)N=S(N)(=O)c2cnc(C(C)(O)CO)s2)CCC1 (single isomer, unassigned) [Compound 201b, (S, R) or (R, R) or (R, S) or (S, S)-2-(1,2-Dihydroxypropan-2-yl)-N′-((3,3-dimethyl-1,2,3,5,6,7-hexahydrodicyclopenta [b,e]pyridin-8-yl)carbamoyl) thiazole-5-sulfonimidamide] | 0.04 to 0.2 µM
21 | CC1(C)CCc2c1nc1c(c2NC(=O)N=S(N)(=O)c2cnc(C(C)(O)CO)s2)CCC1 (single isomer, unassigned) [Compound 201c, (S, S) or (R, S) or (S, R) or (R. R)-2-(1,2-Dihydroxypropan-2-yl)-N′-((3,3-dimethyl-1,2,3,5,6,7-hexahydrodicyclopenta [b,e]pvridin-8-yl)carbamoyl) thiazole-5-sulfonimidamide] | 5 to 30 µM
22 | CC1(C)CCc2c1nc1c(c2NC(=O)N=S(N)(=O)c2cnc(C(C)(O)CO)s2)CCC1 (single isomer, unassigned) [Compound 201d, (R, S) or (S, S) or (S, R) or (R, R)-2-(1.2-Dihydroxypropan-2-yl)-N′-((3,3-dimethyl-1,2,3,5,6.7-hexahydrodicyclopenta [b,e]pvridin-8-yl)carbamoyl)thiazole-5-sulfonimidamide] | 5 to 30 µM
23 | CC1(C)CCc2c1nc1c(c2NC(=O)N=S(N)(=O)c2cnc(C(C)(O)CO)s2)CCC1 (single isomer, unassigned) [Compound 201e, (R, R) and (S, R) or (R, S) and (S, S)-2-(1,2-Dihydroxypropan-2-yl)-N′-((3,3-dimethyl-1,2,3.5.6.7-hexahydrodicyclopenta [b,e]pyridin-8-yl)carbamoyl)thiazole-5-sulfonimidamide] | 0.04 to 0.2 µM
24 | CC1(C)CCc2c1nc1c(c2NC(=O)N=S(N)(=O)c2cnc(C(C)(O)CO)s2)CCC1 (single isomer, unassigned) [Compound 201f, (R, S) and (S, S) or (S, R) and (R, R)-2-(1.2-Dihydroxvpropan-2-yl)-N′-((3,3-dimethyl-1,2,3.5.6.7-hexahydrodicyclopenta [b,e]pvridin-8-yl)carbamoyl)thiazole-5-sulfonimidamide] | 5 to 30 µM
25 | Cc1c(C2CC2)nc2c(c1NC(=O)N=S(N)(=O)c1cnn3c1OCCC3)CCC2 (single isomer, unassigned) [Compound 306a, (S) or (R)-N′-((2-cyclopropyl-3-methyl-6,7-dihydro-5H-cyclopenta[b]pyridin-4-yl)carbamoyl)-6,7-dihydro-5H-pyrazolo[5,1-b] [1,3]oxazine-3-sulfonimidamide] | 5 to 30 µM
26 | Cc1c(C(F)(F)F)nc2c(c1NC(=O)N=S(N)(=O)c1cnc(C(C)(O)CO)s1)CCC2 (single isomer, unassigned) [Compound 605a, (S, RS) or (R, RS) 2-(-1,2-dihydroxypropan-2-yl)-N′-((3-methyl-2-(trifluoromethyl)-6,7-dihydro-5H-cyclopenta[b]pyridin-4-yl)carbamoyl)thiazole-5-sulfonimidamide] | 0.2 to 1 µM
